Measured values: publication PMC6197257 (Scientific Reports, 2018)

Experiments:
OAT1 = target: T1, OAT1 (Homo sapiens, UniProt Q4U2R8); assay: uptake by MDCK II cells stably expressing OAT1; type: in vitro ADME; conditions: pooled plasma of male EHBRs (79 µM compound 1), pH 5.5, 37 °C, 15 min
T1 construct: expressed in transfected cells
T1 sequence (Q4U2R8 1-563): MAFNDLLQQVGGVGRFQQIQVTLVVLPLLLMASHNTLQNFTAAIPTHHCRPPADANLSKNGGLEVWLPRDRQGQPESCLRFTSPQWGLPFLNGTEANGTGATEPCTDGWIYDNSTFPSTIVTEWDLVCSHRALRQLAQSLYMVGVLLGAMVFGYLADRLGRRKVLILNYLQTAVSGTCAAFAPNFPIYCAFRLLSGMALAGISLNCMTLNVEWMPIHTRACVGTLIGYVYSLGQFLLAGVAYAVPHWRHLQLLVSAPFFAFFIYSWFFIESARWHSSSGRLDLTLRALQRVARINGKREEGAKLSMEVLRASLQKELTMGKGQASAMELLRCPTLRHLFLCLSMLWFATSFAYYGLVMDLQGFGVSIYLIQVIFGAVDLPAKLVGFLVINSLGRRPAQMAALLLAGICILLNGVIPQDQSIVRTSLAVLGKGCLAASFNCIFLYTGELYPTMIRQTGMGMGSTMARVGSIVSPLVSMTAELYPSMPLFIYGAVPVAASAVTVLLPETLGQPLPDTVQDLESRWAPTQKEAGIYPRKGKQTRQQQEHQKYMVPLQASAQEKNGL
Method: MDCKII cells were cultured in Dulbecco’s modified Eagle’s medium containing 10% FBS, 100 U/ml penicillin, and 100 µg/ml streptomycin at 37 °C in 5% CO2. Plasmids carrying the cDNAs encoding human organic anion transporter (OAT) 1 and 3 were prepared using the pCI-neo mammalian expression vector, as described previously. Using the plasmids, MDCKII cells stably expressing OAT1 and 3 were prepared as described previously, and tested for their functional expressions by evaluating the transports of [^3H]p-aminohippurate and [^3H]estrone sulfate, respectively, as probe substrates.
For the transport assay, the cells were seeded in 24-well plates (1 × 10^5 cells/well), and incubated for 24 h. The cells were pre-incubated for 15 min at 37 °C with 0.25 ml of the incubation medium described above. Two ml of pooled female or male EHBR plasma samples was lyophilized, and dissolved in 2 ml of 10 mM MES (pH 5.5). The cells were then incubated further at 37 °C for 15 min with 0.1 ml of pooled female or male EHBR plasma samples. The surface of the cells was washed 3 times with 0.5 ml of ice-cold PBS, and then the contents were extracted with 0.2 ml of ethanol. The cell residues were dissolved by 0.1 ml of 1 M NaOH, and after neutralization by adding 0.1 ml of 1 M HCl, the concentrations of protein were measured as mentioned above.

[1] = pharmacokinetics in EHBRs orally treated with GA (200 mg/kg), LC-MS/MS; type: in vivo, Eisai Hyperbilirubinemia rats (EHBRs)
Method: (§1) Female SD rats or EHBRs (9-week-old) were anesthetized by an intraperitoneal (i.p.) injection of urethane (1 g/kg) and their jugular veins were exposed. […] Aliquots (10 µl) of plasma or urine were mixed with 20 µl of subtilisin (0.91 U/ml), incubated at 37 °C for 30 min, followed by the addition of 70 µl of astragalloside IV solution (1 µg/ml in ethanol containing 0.5% formic acid), and kept at −20 °C for 30 min.

[2] = pharmacokinetics in SD rats orally treated with GA (200 mg/kg), LC-MS/MS; type: in vivo, Sprague Dawley (SD) rats; conditions: female SD rats, GA 200 mg/kg oral, over 12 h
Method: as §1

[3] = concentrations in pooled plasma of EHBRs 12 h after oral GA (200 mg/kg); type: in vivo; conditions: Eisai Hyperbilirubinemia rats (EHBR), rat
Method: Three female and three male EHBRs (9-week-old, respectively) were injected with urethane (1 g/kg, i.p.), and orally treated with an aqueous GA aqueous suspension (200 mg/kg in 1% CMC). Twelve h after the treatment, blood was collected from the abdominal vena cava, and the plasma samples of each sex rat were pooled.
LC-ESI(+)MS/MS analysis was conducted at the following conditions: column, Scherzo SM-C18 (3 μm, 3 mm i.d. ×100 mm, Imtakt, Kyoto, Japan); mobile phase, (A) 5 mM AcNH4, (B) 125 mM AcNH4/acetonitrole 1:4, at a flow rate of 0.3 ml/min, with the following gradient profile: A:B = 50:50–0:100 (0–3 min) and 0:100 (3–10 min); compound 1 (5.8 min), astragaloside IV (3.0 min), GA (8.7 min); the transitions monitored were the same as described in the previous section. Linear regressions over the concentration range 0.08–2 µM for compound 1 and 3.2 nM–2 µM for GA were examined using the peak-area ratio of the compounds to their internal standards and the least-squares method (r^2 > 0.98).

rat kidney slices = assay: uptake by rat kidney slices; type: in vitro ADME; conditions: pooled plasma of female EHBRs, pH 5.5, 2 h
Method: Female SD rats (9-week-old) were treated with urethane (1 g/kg, i.p.), and their kidneys were collected. After removal of the capsule, the kidneys were sliced at approximately 0.5-mm thickness in the frontal section of the organ, using a tissue slicer (Natsume Seisakusyo, Tokyo, Japan) and then cut at the renal hilus into two halves. The slices were pre-incubated at either 4 or 37 °C for 15 min in 24-well plates with 0.3 ml of the incubation medium (137 mM NaCl, 5.4 mM KCl, 0.95 mM CaCl2, 0.81 mM MgSO4, 0.44 mM KH2PO4, 0.25 mM Na2HPO4, 5.5 mM glucose, 10 mM MES, adjusted to pH 5.5). Five ml of pooled female EHBR plasma samples was lyophilized, and dissolved in 5 ml of the incubation medium. […] After washing with PBS three times, the kidney slices were homogenated in PBS using sonication, and the concentrations of protein were measured as mentioned above. […]
LC-ESI(+)MS/MS analysis was conducted at the following conditions: column, Scherzo SM-C18 (3 μm, 3 mm i.d. ×100 mm, Imtakt, Kyoto, Japan); mobile phase, (A) 5 mM AcNH4, (B) 125 mM AcNH4/acetonitrole 1:4, at a flow rate of 0.3 ml/min, with the following gradient profile: A:B = 50:50–0:100 (0–3 min) and 0:100 (3–10 min); compound 1 (5.8 min), astragaloside IV (3.0 min), GA (8.7 min); the transitions monitored were the same as described in the previous section. […]

CC1(C(=O)OC2OC(C(=O)O)C(O)C(O)C2O)CC(O)C2(C)CCC3(C)C(=CC(=O)C4C5(C)CCC(OS(=O)(=O)O)C(C)(C)C5CCC43C)C2C1 (stereo not drawn) [Compound 1, 22α-hydroxy-18β-glycyrrhetyl-3-O-sulfate-30-glucuronide]
uptake by cells expressing OAT1 compared with mock cells (OAT1): higher than that by mock cells | plasma concentration, times higher than that of 3MGA ([1]; EHBRs orally treated with GA): about 10 times | concentration at 12 h ([1]; Eisai Hyperbilirubinemia rats (EHBR), rat, plasma, female EHBRs, GA 200 mg/kg oral, 12 h, read-out: plasma concentration 12 h after GA treatment): 5.3 µM | urinary elimination in EHBRs ([1]; female EHBRs, GA 200 mg/kg oral, over 12 h): eliminated via urine | detection in plasma of SD rats [2]: not detected | urinary elimination in SD rats [2]: not detected | concentration at 12 h ([3]; female, read-out: concentration in pooled plasma, female EHBRs): 15 µM | concentration at 12 h ([3]; male, read-out: concentration in pooled plasma, male EHBRs): 79 µM | uptake by kidney slices at 37 °C compared with 4 °C (rat kidney slices): significantly higher
